Values after ≈ are worked out from the molar mass of the structure shown. Active and inactive are the calls of the source. The rule behind the calls is not given here.
What was measured:
Staphylococcus aureus [1] = assay: Anti-bacterial activity against Staphylococcus aureus ATCC 1708 assessed as inhibition of bacterial growth; assay type: functional; settings: Staphylococcus aureus, ATCC 1708; read-out: MIC
Escherichia coli [2] = assay: Anti-bacterial activity against Escherichia coli ATCC 25922 assessed as growth inhibition by measuring optical density measured at 1/8 times of MIC of norfloxacin by Checkerboard assay (reference value: 0.129); assay type: functional
Escherichia coli [3] = assay: Anti-bacterial activity against Escherichia coli ATCC 25922 assessed as growth inhibition by measuring optical density measured at 1/4 times of MIC of norfloxacin by Checkerboard assay (reference value: 0.129); assay type: functional
Escherichia coli [4] = assay: Drug resistance, ratio of MIC for Escherichia coli ATCC 25922 after 20 passages exposure to MIC for Escherichia coli ATCC 25922 after first exposure; assay type: functional
Staphylococcus aureus [5] = assay: Anti-bacterial activity against Staphylococcus aureus CMCC (B) 26003 assessed as inhibition of bacterial growth; assay type: functional
Acinetobacter baumannii [6] = assay: Drug resistance, ratio of MIC for Acinetobacter baumannii after 20 passages exposure to MIC for Acinetobacter baumannii after first exposure; assay type: functional
Acinetobacter baumannii [7] = assay: Anti-bacterial activity against Acinetobacter baumannii assessed as inhibition of bacterial growth measured after 6-7 th passages at sub-MIC concentration by multiple resistance study; assay type: functional, organism-based
Pseudomonas aeruginosa [8] = assay: Anti-bacterial activity against Pseudomonas aeruginosa ATCC 9027 assessed as inhibition of bacterial growth; assay type: functional
Acinetobacter baumannii [9] = assay: Anti-bacterial activity against Acinetobacter baumannii assessed as growth inhibition by measuring optical density measured at 1 time of MIC (reference value: 0.156); assay type: functional
Staphylococcus aureus [10] = assay: Anti-bacterial activity against Staphylococcus aureus ATCC 6538 assessed as inhibition of bacterial growth; assay type: functional
Acinetobacter baumannii [11] = assay: Anti-bacterial activity against Acinetobacter baumannii R674 assessed as inhibition of bacterial growth; assay type: functional
Acinetobacter baumannii [12] = assay: Anti-bacterial activity against Acinetobacter baumannii assessed as growth inhibition by measuring optical density measured at 1/4 time of MIC (reference value: 0.156); assay type: functional
Staphylococcus aureus [13] = assay: Anti-bacterial activity against Staphylococcus aureus CMCC (B) 26001 assessed as inhibition of bacterial growth; assay type: functional
Staphylococcus aureus [14] = assay: Anti-bacterial activity against Staphylococcus aureus ATCC 29213 assessed as inhibition of bacterial growth; assay type: functional; settings: Staphylococcus aureus, ATCC 29213; read-out: MIC
Escherichia coli [15] = assay: Anti-bacterial activity against Escherichia coli ATCC 25922 assessed as inhibition of bacterial growth; assay type: functional
Acinetobacter baumannii [16] = assay: Anti-bacterial activity against Acinetobacter baumannii assessed as growth inhibition by measuring optical density measured at 1/2 time of MIC (reference value: 0.156); assay type: functional
Staphylococcus aureus [17] = assay: Anti-bacterial activity against Staphylococcus aureus ATCC 25923 assessed as inhibition of bacterial growth; assay type: functional; settings: Staphylococcus aureus, ATCC 25923; read-out: MIC
Acinetobacter baumannii [18] = assay: (§1) Anti-bacterial activity against Acinetobacter baumannii assessed as fractional inhibitory concentration measured upto 9 hrs in presence of ethyl(E)-6-((4-(2-(2-aminothiazol-4-yl)-2-(methoxyimino)acetyl)piperazin-1-yl)methyl)-4-(2-butyl-4-chloro-1H-imidazole-5-yl)-2-oxo-1,2,3,4-tetrahydropyrimidine-5-carboxylate; assay type: functional
Acinetobacter baumannii [19] = assay: Anti-bacterial activity against Acinetobacter baumannii assessed as growth inhibition by measuring optical density measured at 1/8 time of MIC (reference value: 0.156); assay type: functional
Klebsiella pneumoniae = assay: Anti-bacterial activity against Klebsiella pneumoniae KPN325 assessed as inhibition of bacterial growth; assay type: functional; settings: Klebsiella pneumoniae, KPN325; read-out: MIC
Pseudomonas aeruginosa [20] = assay: Anti-bacterial activity against Pseudomonas aeruginosa ST235 assessed as inhibition of bacterial growth; assay type: functional; settings: Pseudomonas aeruginosa, ST235; read-out: MIC
Pseudomonas aeruginosa [21] = assay: Anti-bacterial activity against Pseudomonas aeruginosa CMCC (B) 10104 assessed as inhibition of bacterial growth; assay type: functional; settings: Pseudomonas aeruginosa, CMCC (B) 10104; read-out: MIC
Escherichia coli [22] = assay: Anti-bacterial activity against Escherichia coli ATCC 25922 assessed as growth inhibition by measuring optical density measured at 1 times of MIC of norfloxacin by Checkerboard assay (reference value: 0.129); assay type: functional
Acinetobacter baumannii [23] = assay: Anti-bacterial activity against Acinetobacter baumannii assessed as growth inhibition by measuring optical density measured at 2 time of MIC (reference value: 0.156); assay type: functional
Pseudomonas aeruginosa [24] = assay: Anti-bacterial activity against Pseudomonas aeruginosa ATCC 27853 assessed as inhibition of bacterial growth; assay type: functional; settings: Pseudomonas aeruginosa, ATCC 27853; read-out: MIC
Staphylococcus aureus [25] = assay: Anti-bacterial activity against methicillin-resistant Staphylococcus aureus ATCC 43300 assessed as inhibition of bacterial growth; assay type: functional; settings: Staphylococcus aureus, ATCC 43300; read-out: MIC
Pseudomonas aeruginosa [26] = assay: Anti-bacterial activity against Pseudomonas aeruginosa ATCC 15442 assessed as inhibition of bacterial growth; assay type: functional; settings: Pseudomonas aeruginosa, ATCC 15442; read-out: MIC
Enterococcus faecalis = assay: Anti-bacterial activity against Enterococcus faecalis V583 assessed as inhibition of bacterial growth; assay type: functional
Escherichia coli [27] = assay: Anti-bacterial activity against Escherichia coli JM109 assessed as inhibition of bacterial growth; assay type: functional
Staphylococcus aureus [28] = assay: Anti-bacterial activity against methicillin-resistant Staphylococcus aureus N315 assessed as inhibition of bacterial growth; assay type: functional; settings: Staphylococcus aureus, N315; read-out: MIC
Escherichia coli [29] = assay: Anti-bacterial activity against Escherichia coli ATCC 25922 assessed as growth inhibition by measuring optical density measured at 2 times of MIC of norfloxacin by Checkerboard assay (reference value: 0.129); assay type: functional
Escherichia coli [30] = assay: Anti-bacterial activity against Escherichia coli ATCC 25922 assessed as growth inhibition by measuring optical density measured at 1/2 times of MIC of norfloxacin by Checkerboard assay (reference value: 0.129); assay type: functional
Escherichia coli [31] = assay: Anti-bacterial activity against Escherichia coli ATCC 25922 assessed as inhibition of bacterial growth measured after 6-7 th passages at sub-MIC concentration by multiple resistance study; assay type: functional, organism-based
Staphylococcus aureus [32] = assay: Anti-bacterial activity against Staphylococcus aureus ATCC 12600 assessed as inhibition of bacterial growth; assay type: functional; settings: Staphylococcus aureus, ATCC 12600; read-out: MIC
Escherichia coli [33] = assay: as §1, with “Escherichia coli ATCC 25922” for “Acinetobacter baumannii”; assay type: functional

Question: `CCn1cc(C(=O)O)c(=O)c2cc(F)c(N3CCNCC3)cc21` [NORFLOXACIN] was tested. Which MIC (Staphylococcus aureus [1]) did it give?
Answer: Its MIC is 3 µM (≈ 0.958 µg/mL).

Question: What about the OD (Escherichia coli [2]) of the same molecule?
Answer: The OD was 0.125.

Question: And the OD (Escherichia coli [3])?
Answer: The OD was 0.128.

Question: What about the Ratio (Escherichia coli [4]) of the same molecule?
Answer: Its Ratio is 16.

Question: And the MIC (Staphylococcus aureus [5])?
Answer: The MIC was 6 µM (≈ 1.92 µg/mL).

Question: What about the Ratio (Acinetobacter baumannii [6]) of the same molecule?
Answer: Its Ratio is 32.

Question: And the Activity (Acinetobacter baumannii [7])?
Answer: Its Activity is “inactive”.

Question: What about the MIC (Pseudomonas aeruginosa [8]) of the same molecule?
Answer: The MIC was 6 µM (≈ 1.92 µg/mL).

Question: What about the OD (Acinetobacter baumannii [9]) of the same molecule?
Answer: The OD was 0.138.

Question: And the MIC (Staphylococcus aureus [10])?
Answer: The MIC was 6 µM (≈ 1.92 µg/mL).

Question: And the MIC (Acinetobacter baumannii [11])?
Answer: The MIC was 13 µM (≈ 4.15 µg/mL).

Question: What about the OD (Acinetobacter baumannii [12]) of the same molecule?
Answer: Its OD is 0.142.

Question: And the MIC (Staphylococcus aureus [13])?
Answer: The MIC was 6 µM (≈ 1.92 µg/mL).

Question: What about the MIC (Staphylococcus aureus [14]) of the same molecule?
Answer: Its MIC is 6 µM (≈ 1.92 µg/mL).

Question: And the MIC (Escherichia coli [15])?
Answer: Its MIC is 13 µM (≈ 4.15 µg/mL).

Question: And the OD (Acinetobacter baumannii [16])?
Answer: The OD was 0.141.

Question: What about the MIC (Staphylococcus aureus [17]) of the same molecule?
Answer: Its MIC is 6 µM (≈ 1.92 µg/mL).

Question: And the FIC (Acinetobacter baumannii [18])?
Answer: The FIC was 0.25.

Question: And the OD (Acinetobacter baumannii [19])?
Answer: The OD was 0.155.

Question: And the MIC (Klebsiella pneumoniae)?
Answer: Its MIC is 3 µM (≈ 0.958 µg/mL).

Question: What about the MIC (Pseudomonas aeruginosa [20]) of the same molecule?
Answer: The MIC was 6 µM (≈ 1.92 µg/mL).

Question: And the MIC (Pseudomonas aeruginosa [21])?
Answer: Its MIC is 6 µM (≈ 1.92 µg/mL).

Question: What about the OD (Escherichia coli [22]) of the same molecule?
Answer: The OD was 0.129.

Question: And the OD (Acinetobacter baumannii [23])?
Answer: The OD was 0.136.

Question: What about the MIC (Pseudomonas aeruginosa [24]) of the same molecule?
Answer: Its MIC is 25 µM (≈ 7.98 µg/mL).

Question: What about the MIC (Staphylococcus aureus [25]) of the same molecule?
Answer: The MIC was 3 µM (≈ 0.958 µg/mL).

Question: What about the MIC (Pseudomonas aeruginosa [26]) of the same molecule?
Answer: The MIC was 6 µM (≈ 1.92 µg/mL).

Question: What about the MIC (Enterococcus faecalis) of the same molecule?
Answer: The MIC was 6 µM (≈ 1.92 µg/mL).

Question: And the MIC (Escherichia coli [27])?
Answer: The MIC was 25 µM (≈ 7.98 µg/mL).

Question: What about the MIC (Staphylococcus aureus [28]) of the same molecule?
Answer: The MIC was 6 µM (≈ 1.92 µg/mL).

Question: What about the OD (Escherichia coli [29]) of the same molecule?
Answer: The OD was 0.128.

Question: And the OD (Escherichia coli [30])?
Answer: Its OD is 0.128.

Question: What about the Activity (Escherichia coli [31]) of the same molecule?
Answer: The Activity was “inactive”.

Question: And the MIC (Staphylococcus aureus [32])?
Answer: The MIC was 6 µM (≈ 1.92 µg/mL).

Question: What about the FIC (Escherichia coli [33]) of the same molecule?
Answer: The FIC was 0.25.

Source: ChEMBL document CHEMBL5505979, “Novel aminothiazoximone-corbelled ethoxycarbonylpyrimidones with antibiofilm activity to conquer Gram-negative bacteria through potential multitargeting effects” (Eur J Med Chem, 2024)
